From patent US5474992A, “Method of treatment with pharmaceutical composition for renal disorder and a dialysis solution for extracorporeal hemodialysis” (Senju Pharmaceutical Co., Ltd., priority 1993, dated 1995)

Legend:
[1] = system: neutrophil-derived active oxygens formed due to the dialysis membrane; assay: Chemiluminescence assay of scavenging effect on neutrophil-derived active oxygens formed due to the dialysis membrane; format: cell-based, SD rat; conditions: PMMA membrane, MCLA; for Chemiluminescence photon count: mean ± standard deviation, n=5, blank test 42392 ± 12789
Method: The scavenging effect of the compound of this invention on the neutrophil-derived active oxygens formed due to the dialysis membrane was evaluated by the chemiluminescence assay.
An SD rat was intraperitoneally infused with 120 ml/kg of 1% casein-containing Krebs-Ringer bicarbonate buffer (Ca^2+ -free) and kept as it was for 15 to 18 hours. Then, ice-cooled phosphate buffered saline (Ca^2+ /Mg^2+ -free, briefly PBS) was infused into the peritoneal cavity and after massaging the abdomen, laparotomy was performed to collect the peritoneal fluid. This fluid was centrifuged (4° C.) at 150G for 5 minutes and the sediment was subjected to hemolysis treatment, washed with 2 portions of PBS and suspended in Hanks buffered saline (Ca^2+ /Mg^2+ -free; abbreviation: HBS) at a concentration of 5×10^6 cells/ml.
The hollow fiber of polymethyl methacrylate (PMMA) was taken out from the Filtrizer cartridge, rinsed and dried. The dried hollow fiber was milled in a mortar (to a particle diameter of about 20 to 100 μm) and suspended in HBS at a concentration of 100 mg/ml.
MCLA (2-methyl-6-[p-methoxyphenyl]-3,7,-dihydroimidazolo[1,2-a]pyrazin-3-one)(Cypridina luciferin analog; manufactured by Tokyo Kasei Kogyo Co., Ltd.) was dissolved in HBS at a concentration of 5 μM.
EPC-K was dissolved in HBS at final concentrations of 1 μM to 10 μM. To 100 μl of each solution were added 300 μl of the neutrophil suspension and 100 μl of the MCLA solution and the mixture was incubated at 37° for 10 minutes. Then, 20 μl of the PMMA suspension was added and the resulting MCLA-dependent chemiluminescence was quantitated in 5 replicates. From the photon count at maximal emission was subtracted the minimal count immediately following addition of the PMMA suspension to arrive at the chemiluminescence photon count (CPM). The count obtained with HBS (blank test) was compared with the count obtained with the drug and the percent inhibition (%) was calculated by means of the following equation. [formula]

[2] = system: rats with vitamin E deficiency; assay: Effect on renal impairment in rats with vitamin E deficiency (DL-buthionine sulfoximine induced); format: in vivo, male Wistar rats; conditions: 141 mg/5 ml/kg p.o. once daily for one week, vitamin E-deficient rats + BSO, mean ± standard error, n=5
Method: The effect of the compound of this invention, administered orally, on renal impairment in rats with vitamin E deficiency was evaluated.
Test substance: L-ascorbyl DL-α-tocopheryl phosphate potassium (abbreviation: EPC-K).
Method: Male Wistar rats were purchased from Japan Clea, Inc. at the age of 4 weeks and put on a vitamin E-deficient diet for 10 weeks before the experiment.
The rat model of renal impairment was constructed by administering 1 mmol/kg of DL-buthionine sulfoximine (abbreviation: BSO), a glutathione (abbreviation: GSH) synthesis inhibitor, intraperitoneally once a day for 3 consecutive days.
Five hours after the last administration of DL-buthionine sulfoximine (BSO), the blood was drawn from the lower abdominal aorta under pentobarbital anesthesia and the serum levels of creatinine, urea nitrogen (abbreviation: BUN) and lipid peroxide (abbreviation: LPO), which are indicators of renal function, were determined by Jaffe's method, urease-indophenol method, and Yagi's method, respectively.
The test substance EPC-K was administered orally in a dose of 141 mg/5 ml/kg once daily for one week until the blood sampling day. As a control, distilled water was used.

salt-sensitive rats = assay: Effect on salt-sensitive rats (NaCl-induced renal impairment); format: in vivo, male Dahl S rats; conditions: mean ± standard error, n=4 to 6, * p < 0.0001, control 30.0 ± 2.9
Method: The effect of the compound of this invention on salt-sensitive rats was investigated.
Method: Male Dahl S rats (salt-sensitive rats) were purchased from Seiwa Experimental Animal Institute and loaded with 8% aqueous solution of sodium chloride to induce renal impairment.
The test substance EPC-K was administered once daily for 4 weeks. As a control, distilled water was orally administered.

[3] = system: adenine nephrosis in rats; assay: Effect on adenine nephrosis in rats; format: in vivo, male Wistar rats; conditions: i.p. once a day, mean ± standard error, n=8 to 9; for Creatinine: control (saline) 1.95 ± 0.64; for BUN: control (saline) 98.4 ± 34.5
Method: The effect of the compound of this invention on adenine nephrosis in rats was evaluated.
Method: Male Wistar rats, aged 7 weeks, were purchased from SLC and used.
The rats were put on a 0.5% adenine-containing diet for 30 days to induce adenine nephrosis.
The test substance EPC-K was intraperitoneally administered once a day. Physiological saline was used as control.

[4] = system: adriamycin nephrosis in rats; assay: Effect on adriamycin nephrosis in rats; format: in vivo, male SD rats; conditions: 1 mg/kg, i.p. once daily, day 80, mean ± standard error, n=5 to 6
Method: The effect of the compound of this Invention on adriamycin nephrosis in rats was evaluated.
Method: This study was conducted in male SD rats (body weight: about 180 g) purchased from Japan SLC. The rats were intravenously dosed with 7.5 mg/kg of adriamycin to induce renal impairment.
The test substance EPC-K was administered intraperitoneally once daily and the rat was sacrificed on day 80 for determination of biochemical parameters. Physiological saline was used as control.

[5] = Acute toxicity (LD50) in rats; conditions: rat, in vivo
Method: The compound of this invention for use as the active ingredient of said pharmaceutical composition or dialysis solution is extremely low in toxicity and highly safe and, therefore, can be used advantageously for purposes of this invention [e.g. the LD50 values of L-ascorbyl DL-α-tocopheryl phosphate potassium (hereinafter referred to briefly as EPC-K)≥5 g/kg p.o. (rats) and≥100 mg/kg i.v. (rats)].

With `Cc1c(C)c2c(c(C)c1OP(=O)(O)OC1=C(O)[C@@H]([C@@H](O)CO)OC1=O)CCC(C)(CCCC(C)CCCC(C)CCCC(C)C)O2` (mixture of isomers) [EPC-K, L-ascorbyl DL-α-tocopheryl phosphate potassium] the Chemiluminescence photon count ([1]; 1 μM) was 32230 ± 6949 CPM, the Chemiluminescence photon count ([1]; 3 μM) was 26800 ± 3057 CPM and the Chemiluminescence photon count ([1]; 10 μM) was 14518 ± 3648 CPM. The inhibition at 1 µM ([1]; Rattus norvegicus, 1 μM, versus blank test (HBS), read-out: Percent inhibition) was 24%, the inhibition at 3 µM ([1]; Rattus norvegicus, 3 μM, versus blank test (HBS), read-out: Percent inhibition) was 36.8% and the inhibition at 10 µM ([1]; Rattus norvegicus, 10 μM, versus blank test (HBS), read-out: Percent inhibition) was 65.8%. The “Creatinine (serum)” value ([2]; * p < 0.05, distilled water 5.8 ± 0.2) was 2.0 ± 1.3 mg/dL, the “BUN (serum)” value ([2]; ** p < 0.01, distilled water 208.5 ± 17.7) was 62.5 ± 37.1 mg/dL and the “LPO (serum lipid peroxide)” value ([2]; distilled water 5.4 ± 0.9) was 3.8 ± 0.1 nmol/mL. The BUN (salt-sensitive rats; 5 mg/kg, i.p. once daily for 4 weeks) was 15.6 ± 2.7 mg/dL, the BUN (salt-sensitive rats; 141 mg/kg, p.o. once daily for 4 weeks) was 18.5 ± 2.1 mg/dL and the Creatinine ([3]; 5 mg/kg, * p < 0.05) was 1.14 ± 0.32 mg/dL. For the same compound, the BUN ([3]; 5 mg/kg, * p < 0.05) was 61.5 ± 13.2 mg/dL, the Creatinine ([3]; 10 mg/kg, ** p < 0.01) was 0.73 ± 0.15 mg/dL and the BUN ([3]; 10 mg/kg, ** p < 0.01) was 40.2 ± 5.2 mg/dL. For the same compound, the BUN ([4]; * p < 0.0001, control (saline) 23.5 ± 1.7) was 18.2 ± 1.2 mg/dL, the Creatinine ([4]; control (saline) 0.50 ± 0.28) was 0.30 ± 0 mg/dL and the LPO ([4]; control (saline) 2.5 ± 1.8) was 1.4 ± 0.8 nmol/mL. The Urinary protein ([4]; control (saline) 696 ± 710) was 119 ± 54 mg/day, the LD50 ([5]; iv, i.v. (rats)) was no less than 100 mg/kg and the LD50 ([5]; po, p.o. (rats)) was no less than 5000 mg/kg.
